Source: PMC7377239, “Cardiovascular Effects of Polychlorinated Biphenyls and Their Major Metabolites” (Environmental Health Perspectives, 2020)

Test system: iPSC-CMs, iPSC-ECs and HUVECs phenotypes
Assay: ToxPi 2.0 integration of POD values and physicochemical descriptors
Design: species or system human
Conditions: ToxPi-scaled (0-1) score; for huvec.cyto.24hr / huvec.mito.24hr / huvec.mitoint.24hr / huvec.nma.24hr / huvec.tc.24hr / huvec.mtl.18hr / huvec.tlps.18hr / huvec.tta.18hr / huvec.ttl.18hr: HUVECs; for huvec.mtl.18hr / huvec.tlps.18hr / huvec.tta.18hr / huvec.ttl.18hr / endo.mtl.18hr / endo.tlps.18hr / endo.tta.18hr / endo.ttl.18hr: tube formation; for cm.amp.avg.90min / cm.amp.cv.90min / cm.bpm.90min / cm.cam.90min / cm.decay.rise.90min / cm.mii.90min / cm.mito.90min / cm.spacing.cv.90min / cm.tc.90min / cm.amp.avg.24hrs / cm.amp.cv.24hrs / cm.bpm.24hrs / cm.cam.24hrs / cm.decay.rise.24hrs / cm.mii.24hrs / cm.mito.24hrs / cm.spacing.cv.24hrs / cm.tc.24hrs: iPSC cardiomyocytes; for endo.cyto.24hr / endo.mito.24hr / endo.mitoint.24hr / endo.nma.24hr / endo.tc.24hr / endo.mtl.18hr / endo.tlps.18hr / endo.tta.18hr / endo.ttl.18hr: iPSC endothelial cells
Summary of the method: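 Phenotypic readouts in iPSC-cardiomyocytes, iPSC-endothelial cells and HUVECs were normalised to 0.5% DMSO vehicle and fitted to a four-parameter logistic model. POD set at one SD cutoff of vehicle means, with 100 μM assigned when no response. PODs and physicochemical descriptors combined in ToxPi 2.0 scores.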

Row | SMILES | huvec.cyto.24hr | huvec.mito.24hr | huvec.mitoint.24hr | huvec.nma.24hr | huvec.tc.24hr | huvec.mtl.18hr | huvec.tlps.18hr | huvec.tta.18hr | huvec.ttl.18hr | cm.amp.avg.90min | cm.amp.cv.90min | cm.bpm.90min | cm.cam.90min | cm.decay.rise.90min | cm.mii.90min | cm.mito.90min | cm.spacing.cv.90min | cm.tc.90min | cm.amp.avg.24hrs | cm.amp.cv.24hrs | also measured
1 | Clc1ccc(Cl)c(-c2c(Cl)ccc(Cl)c2Cl)c1 [PCB 95, 2,2′,3,5′,6-pentachlorobiphenyl] | 0.9485 | 1 | 0.5155 | 0.5037 | 0.9485 | 0.5568 | 0 | 0 | 0 | 0.3275 | 0.6707 | 0.7438 | 0.4148 | 0.1633 | 0 | 0.3775 | 0.2342 | 0.3895 | 0 | 0.2056 | cm.bpm.24hrs: 1; cm.cam.24hrs: 0.3236; cm.decay.rise.24hrs: 0.2316; cm.mii.24hrs: 0.3974; cm.mito.24hrs: 0.5198; cm.spacing.cv.24hrs: 0.1862; cm.tc.24hrs: 0.5603; endo.cyto.24hr: 0; endo.mito.24hr: 0; endo.mitoint.24hr: 0; endo.nma.24hr: 0; endo.tc.24hr: 0; endo.mtl.18hr: 0.07537; endo.tlps.18hr: 0.09893; endo.tta.18hr: 0.06557; endo.ttl.18hr: 0.054
2 | Clc1ccc(-c2cc(Cl)c(Cl)c(Cl)c2)cc1Cl [PCB 126, 3,3′,4,4′,5-pentachlorobiphenyl] | 0.3035 | 0 | 0 | 0 | 0.3035 | 0 | 0 | 0 | 0 | 0.3003 | 0 | 0.8534 | 0 | 1 | 0 | 0 | 0 | 0 | 0.3868 | 0.06292 | cm.bpm.24hrs: 0.6773; cm.cam.24hrs: 0.3565; cm.decay.rise.24hrs: 1; cm.mii.24hrs: 0; cm.mito.24hrs: 0.557; cm.spacing.cv.24hrs: 0.3424; cm.tc.24hrs: 0.6297; endo.cyto.24hr: 1; endo.mito.24hr: 1; endo.mitoint.24hr: 0.315; endo.nma.24hr: 0; endo.tc.24hr: 1; endo.mtl.18hr: 0.1325; endo.tlps.18hr: 0.4903; endo.tta.18hr: 0.1238; endo.ttl.18hr: 0.0871
3 | Clc1cc(Cl)c(-c2cc(Cl)c(Cl)cc2Cl)cc1Cl [PCB 153, 2,2′,4,4′,5,5′-hexachlorobiphenyl] | 0.8978 | 0.5815 | 0.9487 | 0.5857 | 0.8978 | 0.3619 | 0.09107 | 0.4811 | 1 | 0.6441 | 0.2203 | 0.7602 | 0.6527 | 0.5479 | 0 | 0.6603 | 0.07557 | 0.6003 | 0 | 0.175 | cm.bpm.24hrs: 0.4569; cm.cam.24hrs: 0.2888; cm.decay.rise.24hrs: 0.5277; cm.mii.24hrs: 0.2429; cm.mito.24hrs: 0.486; cm.spacing.cv.24hrs: 0.2007; cm.tc.24hrs: 0.5053; endo.cyto.24hr: 0.2934; endo.mito.24hr: 0.2934; endo.mitoint.24hr: 1; endo.nma.24hr: 0.08276; endo.tc.24hr: 0.1249; endo.mtl.18hr: 1; endo.tlps.18hr: 0.6326; endo.tta.18hr: 0.297; endo.ttl.18hr: 0.4748
